Measurements published in patent publication US9801901B2, “Alginate oligomers for use in overcoming multidrug resistance in bacteria” (priority 2009, dated 2017).
Converted amounts (≈) assume the structure as drawn. Where two headings read alike, the source gives them in different places.

Columns and labels:
[1] = test system: Pseudomonas aeruginosa (MDR 301, PSA, V2); assay: MIC-assay, Mueller-Hinton broth with G-block alginate, 384-well, OD600
[2] = test system: Acinetobacter lwoffii (Egypt, V10); assay: as above
[3] = test system: Acinetobacter baumannii (MDR ACB, Libya, V4); assay: as above
[4] = test system: strains of Klebsiella pneumoniae displaying MDR phenotypes; assay: MIC-assay, Mueller-Hinton broth with G-block alginate, 384-well, OD600 (Table 10); assay type: cell-based; settings: read-out: MIC
From the text: Minimum inhibitory concentration (MICs) of different antibiotics for strains of Klebsiella pneumoniae displaying MDR phenotypes in the presence of varying concentrations of OligoCF-5/20 (0-10%). (MIC values are expressed in μg ml^−1).

[5] = test system: Pseudomonas aeruginosa (R22, PSA, V1); assay: MIC-assay, Mueller-Hinton broth with G-block alginate, 384-well, OD600
[6] = test system: MDR Providencia stuartii; assay: MIC-assay, Mueller-Hinton broth with G-block alginate, 384-well, OD600 (Table 11); assay type: cell-based; settings: Providencia stuartii (IR57 India, V7) MDR
From the text: (§1) Minimum inhibitory concentration (MICs) of different antibiotics for strains of E. coli and Providencia stuartii displaying MDR phenotypes in the presence of varying concentrations of OligoCF-5/20 (0-10%). (MIC values are expressed in μg ml^−1).

[7] = test system: strains of E. coli displaying MDR phenotypes; assay: as above; assay type: cell-based; settings: Escherichia coli, Escherichia coli (5702, Wales, V11) MDR, read-out: MIC
From the text: as §1

[8] = test system: Staphylococcus aureus (MRSA) U50; assay: MIC-assay, Mueller-Hinton broth with G-block alginate, 384-well, OD600 (Table 12); assay type: cell-based; settings: MRSA 1040s, U50 MDR, read-out: MIC
From the text: (§2) Minimum inhibitory concentration (MICs) of different antibiotics for strains of Streptococcus oralis and Staphylococcus aureus (MRSA) displaying MDR phenotypes in the presence of varying concentrations of OligoCF-5/20 (0-10%). (MIC values are expressed in μg ml^−1).

[9] = test system: Streptococcus oralis; assay: as above; assay type: cell-based; settings: Streptococcus oralis (5610, V17) MDR, read-out: MIC
From the text: as §2

[10] = test system: Burkholderia cepacia (LMG18941, ATCC-BAA-246); assay: MIC-assay, Mueller-Hinton broth with G-block alginate, 384-well, OD600
[11] = Pseudomonas aeruginosa, Table 8, V2, G-block (OligoCF-5/20) 0%
[12] = Pseudomonas aeruginosa, Table 8, V2, G-block (OligoCF-5/20) 2%
[13] = Table 9, G-block (OligoCF-5/20) 0%
[14] = Table 9, G-block (OligoCF-5/20) 2%
[15] = Table 9, G-block (OligoCF-5/20) 6%
[16] = Table 9, G-block (OligoCF-5/20) 10%
[17] = Klebsiella pneumoniae (5712, Wales, V12) MDR, G-block (OligoCF-5/20) 0%
[18] = Klebsiella pneumoniae (5712, Wales, V12) MDR, G-block (OligoCF-5/20) 2%
[19] = Klebsiella pneumoniae (5712, Wales, V12) MDR, G-block (OligoCF-5/20) 6%
[20] = Klebsiella pneumoniae (5712, Wales, V12) MDR, G-block (OligoCF-5/20) 10%
[21] = Klebsiella pneumoniae (IR25, India, V6) MDR, G-block (OligoCF-5/20) 0%
[22] = Klebsiella pneumoniae (IR25, India, V6) MDR, G-block (OligoCF-5/20) 2%
[23] = Klebsiella pneumoniae (IR25, India, V6) MDR, G-block (OligoCF-5/20) 6%
[24] = Klebsiella pneumoniae (IR25, India, V6) MDR, G-block (OligoCF-5/20) 10%
[25] = Klebsiella pneumoniae (K3, India, V8) MDR, G-block (OligoCF-5/20) 0%
[26] = Klebsiella pneumoniae (K3, India, V8) MDR, G-block (OligoCF-5/20) 2%
[27] = Klebsiella pneumoniae (K3, India, V8) MDR, G-block (OligoCF-5/20) 6%
[28] = Klebsiella pneumoniae (K3, India, V8) MDR, G-block (OligoCF-5/20) 10%
[29] = Table 8, G-block (OligoCF-5/20) 0%
[30] = Table 8, G-block (OligoCF-5/20) 2%
[31] = Table 8, G-block (OligoCF-5/20) 6%
[32] = Table 8, G-block (OligoCF-5/20) 10%
[33] = ATCCBAA246|LMG18941, Table 8, G-block (OligoCF-5/20) 0%
[34] = ATCCBAA246|LMG18941, Table 8, G-block (OligoCF-5/20) 2%
[35] = ATCCBAA246|LMG18941, Table 8, G-block (OligoCF-5/20) 6%
[36] = ATCCBAA246|LMG18941, Table 8, G-block (OligoCF-5/20) 10%

Work on `CC[C@H]1OC(=O)[C@H](C)[C@@H](O[C@H]2C[C@@](C)(OC)[C@@H](O)[C@H](C)O2)[C@H](C)[C@@H](O[C@@H]2O[C@H](C)C[C@H](N(C)C)[C@H]2O)[C@](C)(O)C[C@@H](C)/C(=N\OCOCCOC)[C@H](C)[C@@H](O)[C@]1(C)O` [Roxithromycin] yielded an MIC [1, 11] of over 512 µg/mL, an MIC [1, 12] of over 512 µg/mL and an MIC ([1]; Pseudomonas aeruginosa, Table 8, V2, G-block (OligoCF-5/20) 6%) of over 512 µg/mL. For the same compound, the MIC ([1]; Pseudomonas aeruginosa, Table 8, V2, G-block (OligoCF-5/20) 10%) was over 512 µg/mL, the MIC [2, 13] was 4 µg/mL (≈ 4.78 µM) and the MIC [2, 14] was under 1 µg/mL. For the same compound, the MIC [2, 15] was under 1 µg/mL, the MIC [2, 16] was under 1 µg/mL and the MIC [3, 13] was 128 µg/mL (≈ 153 µM). For the same compound, the MIC [3, 14] was 32 µg/mL (≈ 38.2 µM), the MIC [3, 15] was 16 µg/mL (≈ 19.1 µM) and the MIC [3, 16] was 16 µg/mL (≈ 19.1 µM). It also gave an MIC [4, 17] of 256 µg/mL (≈ 306 µM), an MIC [4, 18] of 512 µg/mL (≈ 612 µM) and an MIC [4, 19] of 512 µg/mL (≈ 612 µM). It also gave an MIC [4, 20] of 512 µg/mL (≈ 612 µM), an MIC [4, 21] of 1020 µg/mL (≈ 1220 µM) and an MIC [4, 22] of over 1020 µg/mL. For the same compound, the MIC [4, 23] was 1020 µg/mL (≈ 1220 µM), the MIC [4, 24] was over 1020 µg/mL and the MIC [4, 25] was 512 µg/mL (≈ 612 µM). For the same compound, the MIC [4, 26] was 256 µg/mL (≈ 306 µM), the MIC [4, 27] was over 1020 µg/mL and the MIC [4, 28] was over 1020 µg/mL. It also gave an MIC [5, 29] of over 512 µg/mL, an MIC [5, 30] of over 512 µg/mL and an MIC [5, 31] of 512 µg/mL (≈ 612 µM). For the same compound, the MIC [5, 32] was 256 µg/mL (≈ 306 µM), the MIC ([6]; G-block (OligoCF-5/20) 0%) was 64 µg/mL (≈ 76.5 µM) and the MIC ([6]; G-block (OligoCF-5/20) 2%) was 32 µg/mL (≈ 38.2 µM). It also gave an MIC ([6]; G-block (OligoCF-5/20) 6%) of 32 µg/mL (≈ 38.2 µM), an MIC ([6]; G-block (OligoCF-5/20) 10%) of 32 µg/mL (≈ 38.2 µM) and an MIC ([7]; G-block (OligoCF-5/20) 0%) of 512 µg/mL (≈ 612 µM). The MIC ([7]; G-block (OligoCF-5/20) 2%) was 128 µg/mL (≈ 153 µM), the MIC ([7]; G-block (OligoCF-5/20) 6%) was 256 µg/mL (≈ 306 µM) and the MIC ([7]; G-block (OligoCF-5/20) 10%) was 512 µg/mL (≈ 612 µM). For the same compound, the MIC ([8]; G-block (OligoCF-5/20) 0%) was over 1020 µg/mL, the MIC ([8]; G-block (OligoCF-5/20) 2%) was 1020 µg/mL (≈ 1220 µM) and the MIC ([8]; G-block (OligoCF-5/20) 6%) was 512 µg/mL (≈ 612 µM). The MIC ([8]; G-block (OligoCF-5/20) 10%) was 256 µg/mL (≈ 306 µM), the MIC ([9]; G-block (OligoCF-5/20) 0%) was 8 µg/mL (≈ 9.56 µM) and the MIC ([9]; G-block (OligoCF-5/20) 2%) was 8 µg/mL (≈ 9.56 µM). For the same compound, the MIC ([9]; G-block (OligoCF-5/20) 6%) was 0.0312 µg/mL (≈ 0.0373 µM), the MIC ([9]; G-block (OligoCF-5/20) 10%) was 16 µg/mL (≈ 19.1 µM) and the MIC [10, 33] was 256 µg/mL (≈ 306 µM). For the same compound, the MIC [10, 34] was 256 µg/mL (≈ 306 µM), the MIC [10, 35] was 256 µg/mL (≈ 306 µM) and the MIC [10, 36] was 128 µg/mL (≈ 153 µM).
`C[C@@H](O)[C@H]1C(=O)N2C(C(=O)O)=C(SCCN=CN)C[C@H]12` [Imipenem] gave an MIC ([1]; Pseudomonas aeruginosa) of 128 µg/mL (≈ 428 µM), an MIC [1, 11] of 256 µg/mL (≈ 855 µM) and an MIC [1, 12] of 256 µg/mL (≈ 855 µM). It also gave an MIC ([1]; Table 8, V2, G-block (OligoCF-5/20) 10%) of 128 µg/mL (≈ 428 µM), an MIC [2, 13] of under 2 µg/mL and an MIC [2, 14] of under 2 µg/mL. The MIC [2, 15] was under 2 µg/mL, the MIC [2, 16] was under 2 µg/mL and the MIC [3, 13] was 2 µg/mL (≈ 6.68 µM). The MIC [3, 14] was 2 µg/mL (≈ 6.68 µM), the MIC [3, 15] was 2 µg/mL (≈ 6.68 µM) and the MIC [3, 16] was under 2 µg/mL. The MIC [4, 17] was under 2 µg/mL, the MIC [4, 18] was under 2 µg/mL and the MIC [4, 19] was under 2 µg/mL. For the same compound, the MIC [4, 20] was under 2 µg/mL, the MIC [4, 21] was under 2 µg/mL and the MIC [4, 22] was 2 µg/mL (≈ 6.68 µM). The MIC [4, 23] was 2 µg/mL (≈ 6.68 µM), the MIC [4, 24] was 2 µg/mL (≈ 6.68 µM) and the MIC [4, 25] was 8 µg/mL (≈ 26.7 µM). For the same compound, the MIC [4, 26] was 16 µg/mL (≈ 53.4 µM), the MIC [4, 27] was 16 µg/mL (≈ 53.4 µM) and the MIC [4, 28] was 8 µg/mL (≈ 26.7 µM). It also gave an MIC [5, 29] of 128 µg/mL (≈ 428 µM), an MIC [5, 30] of 128 µg/mL (≈ 428 µM) and an MIC [5, 31] of 64 µg/mL (≈ 214 µM). The MIC [5, 32] was 16 µg/mL (≈ 53.4 µM), the MIC ([6]; G-block (OligoCF-5/20) 0%) was 16 µg/mL (≈ 53.4 µM) and the MIC ([6]; G-block (OligoCF-5/20) 2%) was 16 µg/mL (≈ 53.4 µM). For the same compound, the MIC ([6]; G-block (OligoCF-5/20) 6%) was 16 µg/mL (≈ 53.4 µM), the MIC ([6]; G-block (OligoCF-5/20) 10%) was 8 µg/mL (≈ 26.7 µM) and the MIC ([7]; G-block (OligoCF-5/20) 0%) was under 2 µg/mL. The MIC ([7]; G-block (OligoCF-5/20) 2%) was under 2 µg/mL, the MIC ([7]; G-block (OligoCF-5/20) 6%) was under 2 µg/mL and the MIC ([7]; G-block (OligoCF-5/20) 10%) was under 2 µg/mL. The MIC ([8]; G-block (OligoCF-5/20) 0%) was 0.0625 µg/mL (≈ 0.209 µM), the MIC ([8]; G-block (OligoCF-5/20) 2%) was 0.0625 µg/mL (≈ 0.209 µM) and the MIC ([8]; G-block (OligoCF-5/20) 6%) was 0.0312 µg/mL (≈ 0.104 µM). For the same compound, the MIC ([8]; G-block (OligoCF-5/20) 10%) was under 0.0312 µg/mL, the MIC ([9]; G-block (OligoCF-5/20) 0%) was under 0.0312 µg/mL and the MIC ([9]; G-block (OligoCF-5/20) 2%) was 16 µg/mL (≈ 53.4 µM). For the same compound, the MIC ([9]; G-block (OligoCF-5/20) 6%) was 1 µg/mL (≈ 3.34 µM), the MIC ([9]; G-block (OligoCF-5/20) 10%) was under 0.0312 µg/mL and the MIC [10, 33] was over 16 µg/mL. The MIC [10, 34] was over 16 µg/mL, the MIC [10, 35] was over 16 µg/mL and the MIC [10, 36] was over 16 µg/mL.
